The structures appear in SMILES notation. Some results are limits rather than exact numbers.

Experimental findings from US20200060276A1, “THIAZOLE COMPOUND AND HERBICIDE” (OAT Agrio Co., Ltd., priority 2017, published 2020) are described below.

Holding throughout (assay type): in vivo
Test [1] has as its system Echinochloa crus-galli (L.) P. Beauv. var. formosensis Ohwi. Description: Test for Herbicidal Effect in Flooding Treatment (#1), ECHDG. To be noted: flooding treatment at seeding, dose 2 kg/ha, visual observation on day 21. The method in brief: (§1)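 Flooded soil in cups was seeded 24 h after flooding, then treated with compound in acetone diluted with Tween 80-containing water, dropped onto the water surface at 2 kg/ha. After growth in a glasshouse, growth inhibition was scored visually on day 21 on a 0 (<10%) to 5 (≥90% or complete withering) scale.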

Another test has as its system Scirpus juncoides. Description: Test for Herbicidal Effect in Flooding Treatment (#1), SCIJU. As to conditions: flooding treatment at seeding, dose 2 kg/ha, visual observation on day 21. The method in brief:
as §1

For another test, the system named is Monochoria vaginalis. Description: Test for Herbicidal Effect in Flooding Treatment (#1), MONVA. As to conditions: flooding treatment at seeding, dose 2 kg/ha, visual observation on day 21. In outline:
as §1

The next test relates to Cyperus microiria. Description: Test for Herbicidal Effect in Flooding Treatment (#1), CYMIC. To be noted: flooding treatment at seeding, dose 2 kg/ha, visual observation on day 21. The method in brief:
as §1

The subject of test [2] is Echinochloa crus-galli (L.) P. Beauv. var. formosensis Ohwi. Description: Test for Herbicidal Effect in Flooding Treatment (#2), ECHDG at 2-2.5 leaf stage. To be noted: for ECHDG (2-2.5L) #2 herbicidal effect (growth inhibition grade): flooding treatment at 2-2.5 leaf stage, dose 0.2 kg/ha, visual observation on day 21; for inhibition at 200 g/ha: Echinochloa crus-galli, 504 h, flooding treatment (#2), ECHDG at 2-2.5 leaf stage, dose of 0.2 kg/ha, day 21, visual observation, read-out: growth inhibition effect. The method in brief: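 Scoring is a visual 0–5 scale of growth inhibition (0 below 10%, 5 at 90% or more or full withering), taken 21 days after treatment in a glasshouse. Dose was 0.2 kg/ha, applied as acetone/Tween 80 aqueous solution onto flooded soil once seedlings reached the 2–2.5 leaf stage.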

Regarding `COc1ccccc1CS(=O)(=O)c1ncc(Cl)s1` [Compound 1C-2], the “ECHDG #1 herbicidal effect (growth inhibition grade)” value in test [1] is 5 (Growth inhibition effect is equal to or greater than 90%, or complete withering is achieved). The “SCIJU #1 herbicidal effect (growth inhibition grade)” value with Scirpus juncoides is given as 5 (Growth inhibition effect is equal to or greater than 90%, or complete withering is achieved). The “MONVA #1 herbicidal effect (growth inhibition grade)” value in the test on Monochoria vaginalis is given as 5 (Growth inhibition effect is equal to or greater than 90%, or complete withering is achieved). Further, in the test with Cyperus microiria, the “CYMIC #1 herbicidal effect (growth inhibition grade)” value is on record as 5 (Growth inhibition effect is equal to or greater than 90%, or complete withering is achieved). Besides, the “ECHDG (2-2.5L) #2 herbicidal effect (growth inhibition grade)” value in test [2] is listed as 5 (Growth inhibition effect is equal to or greater than 90%, or complete withering is achieved).
As to `COc1cccc(F)c1CS(=O)(=O)c1ncc(Cl)s1` [Compound 1C-5], the “ECHDG #1 herbicidal effect (growth inhibition grade)” value in test [1] was 5 (Growth inhibition effect is equal to or greater than 90%, or complete withering is achieved). Besides, the “SCIJU #1 herbicidal effect (growth inhibition grade)” value with Scirpus juncoides is recorded as 5 (Growth inhibition effect is equal to or greater than 90%, or complete withering is achieved). In addition, the “MONVA #1 herbicidal effect (growth inhibition grade)” value with Monochoria vaginalis is given as 5 (Growth inhibition effect is equal to or greater than 90%, or complete withering is achieved). Further, in the test with Cyperus microiria, the “CYMIC #1 herbicidal effect (growth inhibition grade)” value is 5 (Growth inhibition effect is equal to or greater than 90%, or complete withering is achieved). Further, the “ECHDG (2-2.5L) #2 herbicidal effect (growth inhibition grade)” value in test [2] is recorded as 5 (Growth inhibition effect is equal to or greater than 90%, or complete withering is achieved).
For `CCOc1ccccc1CS(=O)(=O)c1ncc(Cl)s1` [Compound 1C-8], the “ECHDG #1 herbicidal effect (growth inhibition grade)” value in test [1] is 5 (Growth inhibition effect is equal to or greater than 90%, or complete withering is achieved). Further, the “SCIJU #1 herbicidal effect (growth inhibition grade)” value in the test on Scirpus juncoides is on record as 5 (Growth inhibition effect is equal to or greater than 90%, or complete withering is achieved). Moreover, in the test on Monochoria vaginalis, the “MONVA #1 herbicidal effect (growth inhibition grade)” value is listed as 5 (Growth inhibition effect is equal to or greater than 90%, or complete withering is achieved). In addition, the “CYMIC #1 herbicidal effect (growth inhibition grade)” value in the test with Cyperus microiria is 5 (Growth inhibition effect is equal to or greater than 90%, or complete withering is achieved). In addition, the “ECHDG (2-2.5L) #2 herbicidal effect (growth inhibition grade)” value in test [2] is on record as 5 (Growth inhibition effect is equal to or greater than 90%, or complete withering is achieved).
Regarding `CCOc1c(C)cccc1CS(=O)(=O)c1ncc(Cl)s1` [Compound 1C-11], the “ECHDG #1 herbicidal effect (growth inhibition grade)” value in test [1] is reported as 5 (Growth inhibition effect is equal to or greater than 90%, or complete withering is achieved). In addition, the “SCIJU #1 herbicidal effect (growth inhibition grade)” value in the test with Scirpus juncoides was 5 (Growth inhibition effect is equal to or greater than 90%, or complete withering is achieved). In addition, in the test with Monochoria vaginalis, the “MONVA #1 herbicidal effect (growth inhibition grade)” value is 5 (Growth inhibition effect is equal to or greater than 90%, or complete withering is achieved). Moreover, in the test on Cyperus microiria, the “CYMIC #1 herbicidal effect (growth inhibition grade)” value is given as 5 (Growth inhibition effect is equal to or greater than 90%, or complete withering is achieved). The “ECHDG (2-2.5L) #2 herbicidal effect (growth inhibition grade)” value in test [2] is 5 (Growth inhibition effect is equal to or greater than 90%, or complete withering is achieved).
Consider `CCOc1cccc(F)c1CS(=O)(=O)c1ncc(Cl)s1` [Compound 1C-19], for which the “ECHDG #1 herbicidal effect (growth inhibition grade)” value in test [1] was 5 (Growth inhibition effect is equal to or greater than 90%, or complete withering is achieved). In addition, the “SCIJU #1 herbicidal effect (growth inhibition grade)” value with Scirpus juncoides was 5 (Growth inhibition effect is equal to or greater than 90%, or complete withering is achieved). For the same compound, the “MONVA #1 herbicidal effect (growth inhibition grade)” value in the test on Monochoria vaginalis is 5 (Growth inhibition effect is equal to or greater than 90%, or complete withering is achieved). The “CYMIC #1 herbicidal effect (growth inhibition grade)” value with Cyperus microiria is reported as 5 (Growth inhibition effect is equal to or greater than 90%, or complete withering is achieved). In addition, in test [2], the inhibition at 200 g/ha was not below 90% and the “ECHDG (2-2.5L) #2 herbicidal effect (growth inhibition grade)” value is 5 (Growth inhibition effect is equal to or greater than 90%, or complete withering is achieved).
Take `CCOc1c(F)cc(F)cc1CS(=O)(=O)c1ncc(Cl)s1` [Compound 1C-21]: the “ECHDG #1 herbicidal effect (growth inhibition grade)” value in test [1] was 5 (Growth inhibition effect is equal to or greater than 90%, or complete withering is achieved). The “SCIJU #1 herbicidal effect (growth inhibition grade)” value in the test on Scirpus juncoides is reported as 5 (Growth inhibition effect is equal to or greater than 90%, or complete withering is achieved). The “MONVA #1 herbicidal effect (growth inhibition grade)” value in the test on Monochoria vaginalis is 5 (Growth inhibition effect is equal to or greater than 90%, or complete withering is achieved). In the test on Cyperus microiria, the “CYMIC #1 herbicidal effect (growth inhibition grade)” value is 5 (Growth inhibition effect is equal to or greater than 90%, or complete withering is achieved). In test [2], the inhibition at 200 g/ha is not below 90% and the “ECHDG (2-2.5L) #2 herbicidal effect (growth inhibition grade)” value is 5 (Growth inhibition effect is equal to or greater than 90%, or complete withering is achieved).
As for `CCOc1c(Cl)cc(F)cc1CS(=O)(=O)c1ncc(Cl)s1` [Compound 1C-22], the “ECHDG #1 herbicidal effect (growth inhibition grade)” value in test [1] is on record as 5 (Growth inhibition effect is equal to or greater than 90%, or complete withering is achieved). For the same compound, the “SCIJU #1 herbicidal effect (growth inhibition grade)” value in the test with Scirpus juncoides is recorded as 5 (Growth inhibition effect is equal to or greater than 90%, or complete withering is achieved). In addition, the “MONVA #1 herbicidal effect (growth inhibition grade)” value in the test with Monochoria vaginalis is 5 (Growth inhibition effect is equal to or greater than 90%, or complete withering is achieved). Further, in the test with Cyperus microiria, the “CYMIC #1 herbicidal effect (growth inhibition grade)” value is listed as 5 (Growth inhibition effect is equal to or greater than 90%, or complete withering is achieved). Besides, in test [2], the “ECHDG (2-2.5L) #2 herbicidal effect (growth inhibition grade)” value is listed as 5 (Growth inhibition effect is equal to or greater than 90%, or complete withering is achieved).
For the compound `CCOc1c(Cl)cc(Cl)cc1CS(=O)(=O)c1ncc(Cl)s1` [Compound 1C-23], the “ECHDG #1 herbicidal effect (growth inhibition grade)” value in test [1] is reported as 5 (Growth inhibition effect is equal to or greater than 90%, or complete withering is achieved). For the same compound, in the test on Scirpus juncoides, the “SCIJU #1 herbicidal effect (growth inhibition grade)” value is reported as 5 (Growth inhibition effect is equal to or greater than 90%, or complete withering is achieved). For the same compound, the “MONVA #1 herbicidal effect (growth inhibition grade)” value in the test on Monochoria vaginalis was 5 (Growth inhibition effect is equal to or greater than 90%, or complete withering is achieved). Also, the “CYMIC #1 herbicidal effect (growth inhibition grade)” value in the test on Cyperus microiria is recorded as 5 (Growth inhibition effect is equal to or greater than 90%, or complete withering is achieved). For the same compound, the “ECHDG (2-2.5L) #2 herbicidal effect (growth inhibition grade)” value in test [2] is 3 (Growth inhibition effect equal to or greater than 50%, and less than 70%).
Turning to `CCOc1c(C)cc(F)cc1CS(=O)(=O)c1ncc(Cl)s1` [Compound 1C-25], in test [1], the “ECHDG #1 herbicidal effect (growth inhibition grade)” value is recorded as 5 (Growth inhibition effect is equal to or greater than 90%, or complete withering is achieved). Moreover, the “SCIJU #1 herbicidal effect (growth inhibition grade)” value in the test with Scirpus juncoides is given as 5 (Growth inhibition effect is equal to or greater than 90%, or complete withering is achieved). Moreover, the “MONVA #1 herbicidal effect (growth inhibition grade)” value in the test on Monochoria vaginalis is 5 (Growth inhibition effect is equal to or greater than 90%, or complete withering is achieved). In the test with Cyperus microiria, the “CYMIC #1 herbicidal effect (growth inhibition grade)” value is 5 (Growth inhibition effect is equal to or greater than 90%, or complete withering is achieved). Also, the “ECHDG (2-2.5L) #2 herbicidal effect (growth inhibition grade)” value in test [2] is on record as 5 (Growth inhibition effect is equal to or greater than 90%, or complete withering is achieved).
`CN(C)c1cc(Cl)cc(CS(=O)(=O)c2ncc(Cl)s2)c1Cl` [Compound 1C-170]: the “ECHDG #1 herbicidal effect (growth inhibition grade)” value in test [1] is 5 (Growth inhibition effect is equal to or greater than 90%, or complete withering is achieved). Besides, in the test on Scirpus juncoides, the “SCIJU #1 herbicidal effect (growth inhibition grade)” value is recorded as 5 (Growth inhibition effect is equal to or greater than 90%, or complete withering is achieved). In the test on Cyperus microiria, the “CYMIC #1 herbicidal effect (growth inhibition grade)” value was 5 (Growth inhibition effect is equal to or greater than 90%, or complete withering is achieved). The “ECHDG (2-2.5L) #2 herbicidal effect (growth inhibition grade)” value in test [2] is on record as 5 (Growth inhibition effect is equal to or greater than 90%, or complete withering is achieved).
For `N#Cc1cccc(CS(=O)(=O)c2ncc(Cl)s2)c1` [Compound 1C-171], the “ECHDG #1 herbicidal effect (growth inhibition grade)” value in test [1] was 5 (Growth inhibition effect is equal to or greater than 90%, or complete withering is achieved). In the test on Scirpus juncoides, the “SCIJU #1 herbicidal effect (growth inhibition grade)” value is given as 5 (Growth inhibition effect is equal to or greater than 90%, or complete withering is achieved). Besides, the “CYMIC #1 herbicidal effect (growth inhibition grade)” value in the test on Cyperus microiria is on record as 5 (Growth inhibition effect is equal to or greater than 90%, or complete withering is achieved). The “ECHDG (2-2.5L) #2 herbicidal effect (growth inhibition grade)” value in test [2] is 3 (Growth inhibition effect equal to or greater than 50%, and less than 70%).
In the case of `N#Cc1ccc(CS(=O)(=O)c2ncc(Cl)s2)cc1` [Compound 1C-172], the “ECHDG #1 herbicidal effect (growth inhibition grade)” value in test [1] is 5 (Growth inhibition effect is equal to or greater than 90%, or complete withering is achieved). In addition, the “SCIJU #1 herbicidal effect (growth inhibition grade)” value in the test with Scirpus juncoides was 5 (Growth inhibition effect is equal to or greater than 90%, or complete withering is achieved). Besides, the “CYMIC #1 herbicidal effect (growth inhibition grade)” value with Cyperus microiria is reported as 5 (Growth inhibition effect is equal to or greater than 90%, or complete withering is achieved). In addition, in test [2], the “ECHDG (2-2.5L) #2 herbicidal effect (growth inhibition grade)” value is 2 (Growth inhibition effect is equal to or greater than 30%, and less than 50%).
